Experimental data published in patent US20090176839A1, “FORMULATIONS OF 3-(6-(1-(2,2-DIFLUOROBENZO[D][1,3]DIOXOL-5-YL) CYCLOPROPANECARBOXAMIDO)-3-METHYLPYRIDIN-2-YL)BENZOIC ACID” (priority 2007, published 2009).
Entries after “also recorded” stand apart in the source; their conditions may differ. Read-outs that look alike come from different tables or passages of the source.

Key:
[1] = system: gastrointestinal, respiratory, CNS, or cardiovascular systems; experiment: Safety pharmacology studies (ICH S7A/S7B battery); format: in vivo, rat, dog
[2] = Oral pharmacokinetics of Compound 1 in fed or fasted male dogs at 10 mg/kg; format: in vivo, male beagle dogs; settings: for concentration at 48 hr: oral, read-out: Clast
Description: Non-validated research grade assays were used for these analyses. All pharmacokinetic studies were conducted using fed animals unless otherwise specified.
The oral pharmacokinetics of Compound 1 were determined under fed and fasted conditions in male beagle dogs following a single 10 mg/kg administration (Table 6). […] The tmax occurred sooner after administration in the fasted state (1.5 hours) than in the fed state (2.7 hours). The variability of the systemic exposure of Compound 1 was higher under fed conditions (CV of 67% for AUC0-INF) than under fasted conditions (CV of 27% for AUC0-INF), possibly due to changes in stomach emptying time under fed conditions.

[3] = Toxicokinetics in acute oral toxicity study in mice; format: in vivo; settings: plasma
From the text: Compound 1 was well absorbed in mice with time to reach maximum plasma concentrations (tmax) ranging from 0.5 to 2.0 hr. […] There were no significant gender-related effects in Compound 1 exposures noted.

hERG = hERG (Homo sapiens, UniProt Q12809); experiment: hERG electrophysiological techniques; format: cell-based; settings: variety of electrophysiological techniques
Chain of hERG (Q12809 whole entry): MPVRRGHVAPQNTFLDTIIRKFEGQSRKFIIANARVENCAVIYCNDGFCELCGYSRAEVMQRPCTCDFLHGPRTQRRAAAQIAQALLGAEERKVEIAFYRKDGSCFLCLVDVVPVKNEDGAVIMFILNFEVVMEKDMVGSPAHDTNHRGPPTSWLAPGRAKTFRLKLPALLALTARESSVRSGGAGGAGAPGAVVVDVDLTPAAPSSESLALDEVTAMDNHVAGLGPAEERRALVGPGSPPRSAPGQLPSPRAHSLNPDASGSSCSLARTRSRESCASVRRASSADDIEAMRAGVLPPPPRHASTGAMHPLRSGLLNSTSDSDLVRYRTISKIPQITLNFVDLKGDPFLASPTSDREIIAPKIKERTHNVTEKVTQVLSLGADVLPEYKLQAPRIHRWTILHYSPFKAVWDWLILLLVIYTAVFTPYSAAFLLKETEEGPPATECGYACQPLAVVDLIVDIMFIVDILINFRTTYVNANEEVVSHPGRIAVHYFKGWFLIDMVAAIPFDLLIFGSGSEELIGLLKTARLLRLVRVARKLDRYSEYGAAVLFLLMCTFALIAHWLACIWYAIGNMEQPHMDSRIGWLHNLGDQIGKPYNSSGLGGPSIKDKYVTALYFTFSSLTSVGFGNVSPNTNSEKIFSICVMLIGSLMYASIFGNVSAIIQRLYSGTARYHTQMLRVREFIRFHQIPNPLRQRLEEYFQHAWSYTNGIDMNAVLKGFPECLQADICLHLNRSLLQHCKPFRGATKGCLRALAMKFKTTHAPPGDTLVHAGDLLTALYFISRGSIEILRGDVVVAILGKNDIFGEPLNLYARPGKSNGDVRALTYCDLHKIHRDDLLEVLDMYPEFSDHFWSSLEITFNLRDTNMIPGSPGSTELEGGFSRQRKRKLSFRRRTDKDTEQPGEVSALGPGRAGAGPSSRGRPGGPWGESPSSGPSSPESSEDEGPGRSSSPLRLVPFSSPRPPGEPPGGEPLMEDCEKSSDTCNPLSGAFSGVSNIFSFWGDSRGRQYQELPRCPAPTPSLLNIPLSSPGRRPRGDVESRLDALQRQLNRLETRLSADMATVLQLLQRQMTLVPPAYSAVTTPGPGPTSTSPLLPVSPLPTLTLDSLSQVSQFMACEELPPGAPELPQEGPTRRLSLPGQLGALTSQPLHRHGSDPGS

[4] = Toxicokinetics in 7-day dose range finding study in dogs; format: in vivo; settings: 100 mg/kg/day; for Cmax: dog, plasma, oral
Description: One dog per gender was dosed orally with the vehicle (0.5% methylcellulose+0.5% Tween80 in water), or 25, 50, or 100 mg/kg/day Compound 1 for 7 consecutive days. The dose volume was 5 mL/kg/day for all dose groups. Plasma samples were collected on Days 1 and 7 for TK analysis and viability, clinical observations, body weights, feed consumption, clinical pathology (termination), organ weights, macroscopic observations, and microscopic pathology were evaluated.
The plasma AUC0-24 data on Day 1 was consistent with previously conducted single dose studies of Compound 1 in the dog.

male mice = experiment: In vivo mouse micronucleus assay; settings: oral gavage at doses up to 2000 mg/kg
Description: (§1) The potential for genetic toxicology was tested using standard GLP bacterial mutation (Ames), Chinese hamster ovary (CHO) chromosome aberration, and in vivo mouse micronucleus assays: Compound 1 was negative in all tests. […] With the exception of the preliminary 7-day toxicity studies, all studies were performed according to GLP regulations.

dogs [5] = experiment: 14-day repeat-dose oral toxicity study in dogs
Description: (§2) Repeat-dose oral toxicity studies of 7- and 14-days duration have been conducted in rats (up to 600 mg/kg/day) and dogs (up to 200 mg/kg/day).

dogs [6] = settings: dog, in vivo
Description: as §2

[7] = system: Chinese hamster ovary (CHO) cell; experiment: Chinese hamster ovary (CHO) chromosome aberration assay; format: cell-based; settings: GLP
Description: as §1

TP receptor = biological target: T1, TP receptor (Rattus norvegicus, UniProt P34978); experiment: In vitro functional assay of TP receptor function using rat aorta; format: cell-based; settings: read-out: IC50 (TP receptor antagonist)
T1 construct: In an in vitro functional assay of TP receptor function using rat aorta; from tissue; host or cells: rat aorta
T1 sequence (P34978 1-341): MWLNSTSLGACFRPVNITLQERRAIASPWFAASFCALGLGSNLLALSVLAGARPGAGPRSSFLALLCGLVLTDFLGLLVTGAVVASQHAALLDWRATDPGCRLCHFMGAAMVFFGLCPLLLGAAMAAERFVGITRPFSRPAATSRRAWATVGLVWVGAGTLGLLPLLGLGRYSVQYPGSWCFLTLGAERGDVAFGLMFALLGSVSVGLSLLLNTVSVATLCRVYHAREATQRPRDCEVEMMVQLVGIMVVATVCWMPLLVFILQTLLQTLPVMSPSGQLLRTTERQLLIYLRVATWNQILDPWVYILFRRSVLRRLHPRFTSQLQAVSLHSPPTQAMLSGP

[8] = Stability of 6 mg/mL aqueous methylcellulose suspension (HPLC, XRPD); format: physicochemical; settings: room temperature; for Peak purity %: 6 mg/mL aqueous methylcellulose suspension
Description: A 100 mL stock solution of 0.5% by weight methylcellulose was prepared by stirring 0.5 g of methylcellulose with 99.5 g of purified water until completely dissolved (approximately 24 hours). […] The desired amount of 0.5% methylcellulose stock solution for making a 6 mg/mL based on free base (6.48 mg/mL based on HCl salt) was transferred into the vial and sonicated for 20 minutes and homogenized for approximately 5 minutes.
The methylcellulose formulation was also subjected to HPLC analysis at 0 and 24 hours: […]

[9] = Pharmacokinetics in cynomolgus monkeys; format: in vivo; settings: monkey
Description: The pharmacokinetics of Compound 1 were assessed in the same species used in the toxicology studies: CD-1 mice, Sprague Dawley rats and beagle dogs. The pharmacokinetics of Compound 1 were also assessed in cynomolgus monkeys.

[10] = male, beagle, dog, plasma, po, 10 mg/kg, male dogs, Fasted
[11] = male, beagle, dog, plasma, po, 10 mg/kg, male dogs, Fed

For `Cc1ccc(NC(=O)C2(c3ccc4c(c3)OC(F)(F)O4)CC2)nc1-c1cccc(C(=O)O)c1` [Compound 1, 3-(6-(1-(2,2-difluorobenzo[d][1,3]dioxol-5-yl)cyclopropanecarboxamido)-3-methylpyridin-2-yl)benzoic acid], the “cardiovascular or respiratory findings” value ([1]; oral doses up to 1000 mg/kg in the rat and 200 mg/kg in the dog) was “no cardiovascular or respiratory findings”, the “adverse effects on gastrointestinal, respiratory, CNS, or cardiovascular systems” value ([1]; oral formulations) was “unlikely to cause adverse effects” and the clearance ([2]; dog) was “very low clearance”. It also gave an F ([2]; male dogs, 10 mg/kg, Fasted) of 53%, a tlast ([2]; male dogs, 10 mg/kg, Fasted) of 48 h and an F ([2]; male dogs, 10 mg/kg, Fed) of 53%. For the same compound, the tlast ([2]; male dogs, 10 mg/kg, Fed) was 48 h, the concentration at 48 hr ([2]; male, beagle, dog, plasma, 10 mg/kg, male dogs, 10 mg/kg, Fasted) was 66 ng/mL and the concentration at 48 hr ([2]; male, beagle, dog, plasma, 10 mg/kg, male dogs, 10 mg/kg, Fed) was 47 ng/mL. The half-life ([2]; male, beagle, dog, plasma, po, 10 mg/kg, male dogs, 10 mg/kg, Fasted, read-out: t1/2 (converted)) was 378 min, the half-life ([2]; male, beagle, dog, plasma, po, 10 mg/kg, male dogs, 10 mg/kg, Fed, read-out: t1/2 (converted)) was 396 min and the AUC(0-inf) [2, 10] was 35800 ng·h/mL. It also gave a Cmax [2, 10] of 7900 ng/mL, a Tmax [2, 10] of 1.5 h and an AUC(0-inf) [2, 11] of 35700 ng·h/mL. It also gave a Cmax [2, 11] of 4100 ng/mL, a Tmax [2, 11] of 2.7 h and a half-life ([2]; male, beagle, dog, plasma, po, administered orally to dogs, read-out: half-life) of 300 to 540 min. It also gave a bioavailability ([2]; male, beagle, plasma, po, dog, 10 mg/kg orally in a methylcellulose suspension) of 53%, a Cmax ([3]; CD-1, mouse, 2000 mg/kg, Female) of 325 µg/mL and an AUC(0-t) ([3]; CD-1, mouse, 2000 mg/kg, Female, read-out: AUC0-24 h) of 2900 µg·h/mL. For the same compound, the Tmax ([3]; CD-1, mouse, 2000 mg/kg, Female, read-out: tmax) was 1 h, the Cmax ([3]; CD-1, mouse, 2000 mg/kg, Male) was 264 µg/mL and the AUC(0-t) ([3]; CD-1, mouse, 2000 mg/kg, Male, read-out: AUC0-24 h) was 2680 µg·h/mL. For the same compound, the Tmax ([3]; CD-1, mouse, 2000 mg/kg, Male, read-out: tmax) was 1 h, the half-life ([3]; both sexes, mouse, 500 to 2000 mg/kg, read-out: elimination half-life (t1/2)) was 246 to 516 min and the Tmax ([3]; both sexes, mouse, 500 to 2000 mg/kg, read-out: time to reach maximum plasma concentrations (tmax)) was 0.5 to 2 h. For the same compound, the AUC(0-t) ([3]; female, mouse, females at 500 mg/kg, read-out: AUC0-24hr) was 1840 µg·h/mL, the Cmax ([3]; female, mouse, females at 2000 mg/kg) was 325 µg/mL and the Cmax ([3]; male, mouse, males at 500 mg/kg) was 142 µg/mL. For the same compound, the IC50 (hERG) was at least 30 µM, the average plasma concentrations ([4]; female) was 38 µM and the average plasma concentrations ([4]; male) was 16 µM. The Cmax ([4]; female) was about 130 µM, the Cmax ([4]; male) was about 110 µM and the “number of micronucleated polychromatic erythrocytes” value (male mice) was “negative; also recorded: did not induce a significant increase”. The “projected safety margin range from the dog NOAEL” value (dogs [5]; assuming efficacious dose in dogs 0.91 mg/kg b.i.d. (Ctrough at EC90)) was 110 ×, the “low prostate:body weight and prostate:brain weight ratios vs. vehicle control group” value (dogs [5]; male dogs, 14-day study, all dose levels) was 52-62% and the “ECG tracings and opthalmology examinations” value (dogs [6]) was “within normal limits”. The “RBC parameters, decreases” value (dogs [6]) was 7-14%, the “total cholesterol, decreases” value (dogs [6]) was 21-29% and the “triglycerides, decreases” value (dogs [6]) was 44-46%. The light microscopy findings (dogs [6]; 14 days) was “no significant Compound 1 related findings”, the “dosage tolerated without toxic effect” value (dogs [6]; po, 14 days) was “up to 200 mg/kg/day” and the “clastogenicity (chromosome aberrations)” value [7] was “negative”. The IC50 (TP receptor) was 1 to 10 µM, the Peak purity % ([8]; T(0)) was 99.41% and the Peak purity % ([8]; T(24 h)) was 99.37%. The “physically and chemically stable, time” value ([8]; methylcellulose formulation) was “at least 24 hrs” and the clearance [9] was “very low clearance”.
